In this test the test system is T1, trypsin.
T1 construct: gene PRSS1; commercial-type enzyme; bovine is only a guess (porcine equally possible)
The experiment in a line: casein digestion, perchloric acid precipitation, absorbance […] nm. The format is biochemical. The following applies: casein 0.8% substrate, Tris-HCl pH 7.4, 37°C, 5 min preincubation.

In the case of `CC(=O)Oc1ccccc1C(=O)O` [aspirin], the “Protein inhibition denaturation IC50” value was 430 ± 100 µg/mL.

The record behind these values is PMC8959664, “Elucidating Therapeutic and Biological Potential of Berberis baluchistanica Ahrendt Bark, Leaf, and Root Extracts” (Frontiers in Microbiology, 2022).
